Literature values, collected in US4018912A, “Tripeptide derivatives with central nervous system activity and preparation thereof” (Ayerst McKenna and Harrison Ltd., priority 1975, dated 1977).
Where two headings read alike, the source gives them in different places.

Columns and labels:
effects of L-DOPA = settings: literature (Plotnikoff et al. 1971; Friedman et al. 1973)
[1] = prior art; due to rapid inactivation in the mammalian body
effects of oxotremorine = settings: literature (Plotnikoff et al. 1972)
[2] = system: sedative effects of deserpidine; settings: mice; literature (Plotnikoff et al. 1973)
[3] = system: sedative effects of deserpidine; settings: monkeys; literature (Plotnikoff et al. 1973)
[4] = in vivo

Question: Which “potentiation of the behavioral effects of L-DOPA” value (effects of L-DOPA) does the source give for “H-L-prolyl-L-leucyl-glycinamide [H--Pro--Leu--Gly--NH2]” here?
Answer: potentiates the behavioral effects of (3,4-dihydroxyphenyl)-L-alanine (L-DOPA)

Question: What about the duration of action [1] of the same substance?
Answer: short duration of action

Question: What about the “antagonism of the effects of oxotremorine” value (effects of oxotremorine) of the same substance?
Answer: antagonizes the effects of oxotremorine

Question: What about the “reversal of the sedative effects of deserpidine” value [2] of the same substance?
Answer: reverses the sedative effects of deserpidine

Question: What about the “reversal of the sedative effects of deserpidine” value [3] of the same substance?
Answer: reverses the sedative effects of deserpidine

Question: And the “first step in the inactivation” value [4]?
Answer: proteolytic cleavage of the Pro-Leu bond with formation of proline and leucyl-glycinamide
